Experimental data taken from patent US20110189291A1, “DENDRIMER HYDROGELS” (priority 2009, published 2011).
Values after ≈ are worked out from the molar mass of the structure shown. Values joined by “and” are separate entries in the source; they are usually repeats but may differ in a detail not shown here. Equal values may be shown once. Where a name gives a salt, the structure may show the parent alone. Read-outs that look alike come from different tables or passages of the source.

Experiments:
[1] = Ex vivo bovine eye tissue uptake after topical dosing; assay type: in vitro ADME
Protocol: 1. […] Eyes were kept in the muffin plate and partially dipped into PBS pH 7.4. 3. 50 μl of hydrogel formulation or solution was instilled gently as an eye drop onto the corneal surface. 4. After every 15 minutes, 50 μl of fresh PBS pH 7.4 was instilled as an eye drop to prevent corneal drying. 5. At the end of 1 h, eyes were dissected and the following tissues were collected: corneal epithelium, stroma, endothelium and aqueous humor. Tissues were stored at −80° C. before sample processing and analysis. 1. Tissues weights were recorded and 0.49 ml of 2% NaOH solution was added to these tissues along with 10 μl of IS of 12.5 μg/ml. 2. Samples were homogenized, sonicated, and extracted with organic solvent. Final reconstitution was done in 0.5 ml of acetonitrile-water mixture (75:25).

[2] = tested on: Human corneal epithelial cells (HCET); assay type: cell-based; details: 1 h
Protocol: The uptake of brimonidine and timolol maleate by HCET cells after entrapment of the drugs in a hydrogel was studied. As a control, eye drop formulation of both the drugs in phosphate buffer saline was used. • 1. Human corneal epithelial cells (HCET, passage #40) were seeded in a 48 well plate (BD, Falcon®, Multiwell™ tissue culture plates) at a seeding density of 5000 cells/well. • 2. The cells were allowed to adhere to the surface of the well overnight. • 3. […] The cells were washed twice with 200 μl cold PBS pH 7.4 and twice with 200 μl cold acidic PBS pH 5.0. All the washes were collected. Finally, 200 μl of 1% w/v Triton X 100 solution was transferred to each well and allowed to stand for 30 minutes. • 6. The cells were scraped (dislodged) using a pipette tip and suspension of cells in 1% Triton X 100 solution was collected. • 7. Samples were processed as follows: 100 μl of sample collected as described above was diluted to 500 μl using acetonitrile. The samples were vortexed for 10 minutes and centrifuged at 10,000 rpm for 5 minutes, and then analyzed using LC-MS as described in Table 4. Dorzolamide was used as an internal standard

[3] = Ex vivo transcorneal transport
Protocol: 1. Corneas were isolated from freshly excised bovine eyes and mounted in Using chambers. 2. […] Note: Both drugs were present together in this hydrogel/solution cocktail. 3. […] 4. 200 μl of sample was collected from the receiver side with fresh assay buffer replacement at the end of 1, 2, 3, 4 and 6 h. 5. […] 6. Samples were stored at −80° C. prior to analysis. 7. Cumulative percent transport was normalized to the amount of drug present at zero time point.

[4] = In vitro drug release by dialysis in pH 7.4 PBS at 37° C.; assay type: physicochemical; details: for time for complete release (in words): from eye drop formulations
Protocol: The control eye drop formulation was PBS containing 0.1% brimondien and 0.5% timiolol maleate. […] The dissolution medium was maintained at 37±2° C. and constantly agitated in a shaker incubator. 4. Dissolution medium was completely replaced at all time intervals with 1.5 ml of fresh dissolution medium maintained at 37±2° C. 5. The amount of drug released in the dissolution medium at each time interval was analyzed by LC-MS.

physchem = details: for solubility: thermodynamic from solid, saturated concentration (solubility); for solubility / saturated concentration (solubility): room temperature
Protocol: Following overnight equilibration at room temperature, the solution was vortexed again and then centrifuged at 10,000 rpm for 5 min to remove undissolved drug. The sample solution was diluted by a factor of 100 in PBS, and absorbance value (Y) at 248 nm was recorded on a GENESYS™ 6 UV-Visual spectrophotometer. Thus, drug concentration (C in μg/mL) was determined using the following regression equation: C=(Y−0.005)/0.063. […] Measurements were done in duplicate.
Following overnight equilibration at room temperature, the solution was vortexed again and then centrifuged to remove undissolved drug. The supernatant was collected, diluted by a factor of 100 in PBS, and its absorbance value (Y) at 248 nm was recorded on a GENESYS™ 6 UV-Visual spectrophotometer. Thus, drug concentration [C] (μg/mL) was determined using the following regression equation: C=(Y−0.005)/0.063 [2]. […] Measurements were done in duplicate.

Row | SMILES | Mean % drug content in first wash with acidic buffer [2] [%] | Mean % drug content in second wash with acidic buffer [2] [%] | Mean % drug content in supernatant after completion of study [2] [%] | Mean % drug content in first wash with acidic buffer ([2]; pH 7.4) [%] | Mean % drug content in second wash with acidic buffer ([2]; pH 7.4) [%] | Mean % drug content in supernatant after completion of study ([2]; pH 7.4) [%] | duration of sustained release ([4]; from DH formulation) [h] | time for complete release (in words) [4] | also measured
1 | Brc1c(NC2=NCCN2)ccc2nccnc12 [brimonidine] | 0.00 | 0.00 | 0.00 | 93.13 | 2.92 | 0.06 | ~72 | within one hour and a half | level in aqueous humor, hydrogel versus eye drop formulation (in words) ([1]; 1 h after topical instillation): significant difference in drug level was not observed; Mean % drug content in cell lysate after completion of study (uptake) [2]: 76.17%; uptake with DH formulation higher than with eye drop formulation [2]: 19 fold; corneal transport, hydrogel formulation versus solution (in words) ([3]; at the end of 6 h): slightly higher transport; cumulative percentage transport across the cornea ([3]; from the DH formulation, at 6 h): 1.06±0.18%; duration of sustained release ([4]; from hydrogel Formulation C (0.1% brimonidine, 0.5% timolol maleate), 37° C.): 72 h; solubility (physchem; 8.1% (w/v) G3.0-PEG-dA in PBS, aqueous with cosolvent or surfactant or cyclodextrin, in the presence of G3.0-PEG-dA (8.1% w/v in PBS; DH formulation)): 696 µg/mL; solubility increase (physchem; G3.0-PEG-dA / DH formulation versus plain PBS): 77.5% and 77.6%; solubility (physchem; PBS, aqueous buffer, plain PBS): 392 µg/mL (≈ 1340 µM); saturated concentration (solubility) (physchem; in the presence of G3.0-PEG-dA (8.1% w/v in PBS; DH formulation)): 696 µg/mL; saturated concentration (solubility) (physchem; plain PBS): 392 µg/mL
2 | CC(C)(C)NC[C@H](O)COc1nsnc1N1CCOCC1 [timolol maleate] | 0.0 | 14.9 | 0.1 | 0.0 | 34.7 | 0.2 | ~56 | within one hour and a half | level from hydrogel formulation more than from eye drop solution ([1]; bovine, 1 h, 0.5 %, pH 7.4): 40%; corneal transport, hydrogel formulation versus solution (in words) [3]: higher from hydrogel; cumulative percentage transport across the cornea ([3]; bovine, 6 h, pH 7): 13.54±1.83%
